Measured values from publication PMC4657899, “Design, Synthesis and In Vitro Activity of Anticancer Styrylquinolines. The p53 Independent Mechanism of Action” (PLoS ONE, 2015).

Columns and labels:
HCT116 (p53-/-) = test: MTS anti-proliferative assay, HCT116 (p53-/-); format: cell-based, human; conditions: for IC50: MTS, 72 h incubation, mean ± SD
Method: (§1) The human colon adenocarcinoma cell line HCT116 along with wild type p53 (p53^+/+) were obtained from the ATCC. The normal human fibroblast cell line GM 07492 and HCT116 with a p53 deletion (p53^-/-) were kindly provided by prof. M. Rusin from Maria Sklodowska-Curie Memorial Cancer Center and Institute of Oncology in Gliwice, Poland. Cells were grown as monolayer cultures in 75 cm^2 flasks (Nunc) in Dulbecco’s modified Eagle’s medium with an antibiotic gentamicin (200 μL/100 mL medium). DMEM for HCT116 were supplemented with 12% heat-inactivated fetal bovine serum (Gibco) and for GM 07492 with 15% fetal bovine serum (Gibco). Cells were cultured under standard conditions at 37°C in a humidified atmosphere at 5% CO2.
(§2) The cells were seeded in 96-well plates 24 h before the addition of the compounds that were tested. The assay was performed following a 72 h incubation with varying concentrations of the agents that were tested. The results were calculated as IC50 values (using GraphPad Prism 5). Each individual compound was tested in triplicate in a single experiment with each experiment being repeated three times. After a 72 h incubation with the compounds that were tested, 20 μL of The CellTiter 96®AQueous One Solution—MTS (Promega) solution was added to each well (with 100 μL DMEM without phenol red) and incubated for 1 h at 37°C. The optical densities of the samples were analyzed at 490 nm. Results were expressed as a percentage of the control.

GM 07492 = test: MTS cytotoxicity assay, normal fibroblasts GM 07492; format: cell-based; conditions: 72 h incubation, normal human fibroblasts, mean ± SD
Method: as §1, §2

HCT116 (p53+/+) = test: MTS anti-proliferative assay, HCT116 (p53+/+); format: cell-based, human; conditions: mean ± SD
Method: as §1, §2

HCT116 -/- = test: Trypan blue staining test, HCT116 -/-; format: cell-based, human; conditions: S2 Table, trypan blue cell counting, 72 h
Method: (§3) The cells were seeded in 3 cm Petri dishes (Nunc) and incubated at 37°C. After 24h, solutions […]
(§4) a 72 h incubation with tested compounds, the cells were trypsinize d with 0.05% Trypsin -EDTA solution (Sigma). Then, 90µl of suspension cells transferred into 96 -well plate containing 10µl Trypan blue reagent in wells. The cells were counted under an optical inverted microscope Olympus CKX31. The results from three independent experiment were calculated as IC 50 values using GraphPad Prism 5 software.

HCT116 +/+ = test: Trypan blue staining test, HCT116 +/+; format: cell-based, human; conditions: S2 Table, trypan blue cell counting, 72 h
Method: as §3, §4

Calf-thymus DNA (CT-DNA) = test: Spectrophotometric DNA binding (intercalation) study with CT-DNA
Method: For the DNA binding studies, Calf-thymus DNA (CT-DNA) was purchased from Sigma Aldrich. The lyophilized CT-DNA was dissolved in 10 mM Tris-HCl, pH 7.9, mixed gently and left overnight at 4°C. Then, the concentration of CT-DNA was determined from the absorbance at 260 nm using an extinction coefficient of 6600 M^-1cm^-1. […] Afterwards, 18 μM CT-DNA was added to the prepared solutions and were incubated for 1.5 h at 37°C with occasional vortexing. Absorption spectra were measured using a Hitachi U-2900 spectrophotometer in range of 200–600 nm. All absorption spectra were imported and compared in OriginPro 8.0.

[1] = Homo sapiens, HCT-116, 72 h incubation

SMILES | IC50 (HCT116 (p53-/-)) | IC50 (HCT116 (p53+/+); 72 h incubation) | IC50 (HCT116 (p53-/-); Homo sapiens, HCT-116) | IC50 (HCT116 (p53+/+); [1]) | melting point | further results
Oc1ccccc1C=Cc1ccc2ccccc2n1 [1a] | 14.1 ± 2.24 µM | 17.4 ± 2.2 µM |  |  |  | IC50 (GM 07492): > 25 µM
CCOc1ccccc1C=Cc1ccc2c(Cl)cc(Cl)c(O)c2n1 [1c, 5,7-Dichloro-2 – [2-(2-ethoxyphenyl)vinyl]quinolin-8-ol] |  |  | 3.25 ± 1.81 µM | 5.93 ± 0.97 µM | 100 to 102 °C | IC50 (GM 07492; Fibroblast): > 25 µM
CCOc1ccc(C=Cc2ccc3ccccc3n2)cc1 [2a] |  |  | > 25 µM | > 25 µM |  | 
CC(=O)Oc1ccccc1C=Cc1ccc2cccc(OC(C)=O)c2n1 [2b] | 14.7 ± 1.74 µM | 8.08 ± 0.56 µM |  |  |  | IC50 (GM 07492): 6.92 ± 1.72 µM
Oc1c(Cl)cc(Cl)c2ccc(C=Cc3ccccc3Cl)nc12 [2c, 5,7-Dichloro-2 – [2-(2-chlorophenyl)vinyl]quinolin-8-ol] |  |  |  |  | 205 to 210 °C | 
CCCCOc1ccc(C=Cc2ccc3ccccc3n2)cc1 [3a] | > 25 µM | > 25 µM |  |  |  | IC50 (HCT116 -/-): > 25 µM; IC50 (HCT116 +/+): > 25 µM
CC(=O)Oc1ccccc1C=Cc1ccc2cccc(O)c2n1 [3b] | 13.5 ± 0.81 µM | 7.32 ± 1.01 µM |  |  |  | IC50 (GM 07492): > 25 µM
CCOc1ccc(C=Cc2ccc3c(Cl)cc(Cl)c(O)c3n2)cc1 [3c, 5,7-Dichloro-2 – [2-(4-ethoxyphenyl)vinyl]quinolin-8-ol] |  |  | 3.53 ± 0.83 µM | 2.23 µM | 156 to 158 °C | % hypochromism (Calf-thymus DNA (CT-DNA); 18 μM CT-DNA, 1.5 h 37°C, Tris-HCl pH 7.9, at the (first) absorption band (CP-31398: 312)): 11,6%; Δε (Calf-thymus DNA (CT-DNA); 18 μM CT-DNA, at the (first) absorption band (CP-31398: 312)): 557,8 M−1 cm−1; shift of the wavelength of maximum absorption, alone vs DNA-bound (Calf-thymus DNA (CT-DNA); S3 Table, 18 μM CT-DNA): 8; Changes in absorbance (Calf-thymus DNA (CT-DNA); S3 Table, with CT-DNA): hypochromism; IC50 (GM 07492; Fibroblast): > 25 µM
CC(=O)Oc1cccc(C=Cc2ccc3cccc(O)c3n2)c1 [4b] | 10.7 ± 3.76 µM | 7.88 ± 1.98 µM |  |  |  | IC50 (GM 07492): > 25 µM
COc1cc(C=Cc2ccc3cccc(O)c3n2)cc(OC(C)=O)c1OC(C)=O [7b] |  |  | > 25 µM | > 25 µM | 172 °C | 
CC(=O)Oc1ccc(C=Cc2ccc3cccc(OC(C)=O)c3n2)c(OC(C)=O)c1 [8b] | > 25 µM | > 25 µM |  |  |  | 
Oc1cc(O)c(C=Cc2ccc3cccc(O)c3n2)c(O)c1 [9b] | > 25 µM | > 25 µM |  |  |  | 
CC(=O)Oc1cc(OC(C)=O)c(C=Cc2ccc3cccc(OC(C)=O)c3n2)c(OC(C)=O)c1 [10b] |  |  | > 25 µM | > 25 µM | 189 °C | 
Oc1cccc2ccc(C=Cc3ccccc3F)nc12 [11b] |  |  | 8.38 ± 1.12 µM | 15.4 ± 2.46 µM | 239 °C | times more effective against HCT116 (p53-/-) than against wild type cells (HCT116 (p53-/-); ratio of MTS IC50 values): 2–3 times; IC50 (GM 07492; Fibroblast): > 25 µM
